Measurements: patent US20060030620A1, “Method for treating and/or preventing ischemia/reperfusion injury” (priority 2004, published 2006)

Key:
Type in all cases: in vivo, Spargue-Dawley rats
[1] = tested on: liver ischemia/reperfusion injury; test: Plasma AST/ALT during hepatic ischemia/reperfusion
Method: (§1) The liver was then examined by the following assays.
(§2) The collected blood samples were centrifuged at 4000 g×5 min to separate the plasma, and the levels of aspartate transaminase (AST), alanine transaminase (ALT), and alkaline phosphatase (ALP) in the bile juice were measured with an auto-analyzer (model H-747E, Hitachi Co., Tokyo). Lipid peroxide was followed as Masugi and Nagamura stated by thiobarbituric acid method using malondialdehyde (MDA) tetraethyl acetal as the standard and expressed results of MDA equivalents.
(§3) Each data was expressed as mean±SD.

[2] = tested on: liver ischemia/reperfusion injury; test: Histological investigation of the liver after hepatic I/R (H&E); settings: 70 minutes of ischemia and 120 minutes of reperfusion; MA-treated ischemia group
Method: as §1
(§4) Protein contents of the collected tissues were assayed with Lowry using bovine serum albumin as the standard. The collected tissue was fixed in saline buffered with 10% formaldehyde solution, embedded in paraffin wax, sliced into 5 μm thickness of each, stained with H&E staining method, and examined with a light microscope by a pathologist independently.
Histological changes in liver after hepatic I/R were kept with the above biochemical experiments of plasma and bile juice analysis. The placebo group was shown on A (100×) and B (400×); wherein “1” is severe endothelial damage, “2” is bile duct dilation, “3,” is parenchyma edema with RBC congestion, “4,” is Cholestasis, and “5” is hepatocyte necrosis. […] The dilated bile duct might be attributed to ischemic process when the clamp was used to stop the blood flow and simultaneously obstruct the bile flow. Parenchyma edema and RBC congestion might develop from the inflammatory process during I/R process.

[3] = tested on: liver ischemia/reperfusion injury; test: Bile flow during hepatic ischemia/reperfusion
Source text: as §1, §3

[4] = tested on: liver ischemia/reperfusion injury; test: Bile juice ALP during hepatic ischemia/reperfusion; settings: after 120 minutes of reperfusion, MA 100 mg/kg
Method: as §1, §2, §3

[5] = tested on: liver ischemia/reperfusion injury; test: Lipid peroxidation assay (liver MDA, thiobarbituric acid method); parameters: post-ischemic MDA levels in liver: unit not given here
Method: as §1, §2, §4, §3

[6] = MA 100 mg/kg iv 10 min prior to reperfusion, 70 min ischemia, after 120-minute reperfusion, mean±SD
[7] = after 60 minutes of reperfusion, P<0.05
[8] = after 120 minutes of reperfusion, MA 100 mg/kg iv

Magnesium ascorbate
increase in AST and ALT activity versus vehicle-treated ischemia rats ([1]; 1 to 4 hours after reperfusion, MA 100 mg/kg, P<0.05): significantly suppressed | average plasma AST level [1, 6]: 2040±882 U/l | plasma ALT level [1, 6]: 4466±1745 U/l | plasma AST levels compared with the placebo group ([1]; after 30 minutes of reperfusion, P<0.05): significantly decreased | plasma AST levels compared with the placebo group [1, 7]: significantly decreased | decrease of the elevated serum ALT level [1, 8]: 69% | decrease of the elevated serum AST level [1, 8]: 78% | histological findings of the liver (H&E) [2]: minor lesions were observed, damaged to the vascular endothelium and cholestasis was also mild | bile flow compared with the control group (sham) ([3]; P=0.21): significantly restored resemble to normal values | choleretic effect compared with the placebo group [3, 7]: significantly increased | secreted bile juice versus vehicle-treated ischemia group ([3]; after 120 minutes of reperfusion injury): significantly doubled | bile flow ([3]; after 120 minutes of reperfusion, MA 100 mg/kg iv, mean±SD): 1.353 ± 0.351 mL/h/kg | bile flow compared with the vehicle-treated ischemia group ([3]; from 60 minutes to 240 minutes of reperfusion, P<0.05): significantly restored | relief of the ALP in bile juice from I/R damage [4]: about 70% | bile ALP ([4]; mean±SD): 34.5±8.3 U/l | post-ischemic MDA levels in liver ([5]; 70 min ischemia and 120 min reperfusion, MA 100 mg/kg 10 min prior to reperfusion, mean±SD, P<0.02): 1054±414 | MDA concentration in liver tissue versus vehicle-treated ischemia group ([5]; MA 100 mg/kg infusion 10 minutes prior to reperfusion, after 120 minutes of reperfusion): significantly decreased
